Measurements as given in paper PMC6268628, “Steroidal and Phenolic Glycosides from the Bulbs of Lilium pumilum DC and Their Potential Na^+/K^+ ATPase Inhibitory Activity” (Molecules, 2012).
Read-outs that look alike come from different tables or passages of the source.

Biological target: T1, Ouabain sensitive dog kidney Na^+/K^+ ATPase (Canis lupus familiaris, UniProt P50997)
T1 construct: Ouabain sensitive dog kidney Na^+/K^+ ATPase was obtained from Sigma (Shanghai, China); purchased Sigma (Shanghai, China); host or cells: dog kidney (tissue-derived enzyme preparation)
Test: Assay of Na+/K+ ATPase activity (released inorganic phosphate, absorbance at 660 nm)
Type: biochemical
Protocol: Specific rotation measurements were recorded on a Perkin-Elmer 242 MC polarimeter. UV spectra were recorded on a Hewlett-Packard HP-845 UV-VIS spectrophotometer. IR spectra were recorded on a Nicolet 470 spectrometer and MS on a Varian MAT-212 mass spectrometer and a Shimadzu GC-MS model QP2010 Plus spectrophotometer, respectively. NMR spectra were recorded on a Bruker AM-400 spectrameter (400 MHz for ^1H-NMR) or a Bruker DRX-500 (500 MHz for ^1H-NMR) spectrameter using standard Bruker pulse programs. Chemical shifts are given as δ values with reference to tetramethylsilane (TMS) as internal standard. Column chromatography separations were carried out on silica gel (200–300 mesh, Qingdao Haiyang Chemical Co. Ltd, Qingdao, China), ODS (50 mesh, AA12S50, YMC), Diaion HP-20 (Pharmacia, Peapack, NJ, USA) and Sephadex LH-20 (Pharmacia, Peapack, NJ, USA). Ouabain sensitive dog kidney Na^+/K^+ ATPase was obtained from Sigma (Shanghai, China). All other chemicals used were of biochemical reagent grade.
The Na^+/K^+ ATPase activity was assayed according to the reported method with some modification. […] The released inorganic phosphate was determined by the following method. […] After 25 min, the absorbance at 660 nm was recorded.

Row | SMILES | IC50 | IC50 (0.02 units enzyme, 3 mM ATP, pH 7.3, 37 °C, 20 min, 5% DMSO, read-out: IC50, inhibitory activity on Na^+/K^+ ATPase)
1 | C[C@@H]1O[C@@H](O[C@H]2C[C@@H](O)[C@]3(CO)[C@H]4[C@H](O)C[C@]5(C)[C@@H](C6=CC(=O)OC6)CC[C@]5(O)[C@@H]4CC[C@]3(O)C2)[C@H](O)[C@H](O)[C@H]1O [Ouabain, reference compound] | 1 µM | –
2 | CC1CCC2(OC1)OC1CC3C4CC(=O)C5CC(OC6OC(CO)C(O)C(O)C6OC6OC(C)C(O)C(O)C6O)CCC5(C)C4CCC3(C)C1C2C [Compound 3, (25R)-3β-hydroxyl-5α-spirostan-6-one 3-O-α-L-rhamnopyranosyl-(1→2)-β-D-glucopyranoside] | – | 73 µM
